From patent US8088791B2, “Antibacterial agents” (Biots Scientific Management Pty Ltd, priority 2006, dated 2012)
Values after ≈ are worked out from the molar mass of the structure shown. Read-outs that look alike come from different tables or passages of the source. Values belong to the molecule of their own block, whether it stands above or below them.

Legend:
[1] = tested on: Bacillus subtilis 168CA; assay: Minimum Inhibitory Concentration (MIC) testing, broth microdilution, Bacillus subtilis; assay type: cell-based; settings: Bacillus subtilis 168CA; read-out: Bacillus subtilis MICs Activity
Procedure, shortened: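 MICs were scored A (≦8 μg/ml), B (16–64 μg/ml) or C (>64 μg/ml), read as the lowest concentration preventing visible growth by eye and spectrophotometry. Plates incubated overnight (16–20 h) at 37 °C, inoculum OD 0.09 diluted 1:100 in 2× broth, per NCCLS guidelines.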

[2] = tested on: Staphylococcus aureus ATCC29213; assay: Minimum Inhibitory Concentration (MIC) testing, broth microdilution, Staphylococcus aureus; assay type: cell-based; settings: Staphylococcus aureus ATCC29213; read-out: Staphylococcus aureus MICs Activity
Procedure, shortened: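 Broth microdilution per NCCLS M7-A5 in Mueller Hinton broth, with compound in 1.6% DMSO and inoculum at OD 0.09 diluted 1:100. Plates incubated 16–20 h at 37°C. MIC is the lowest concentration with no visible growth; scored A ≤8, B 16–64, C >64 μg/ml.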

[3] = tested on: various bacterial species; assay: Minimum Inhibitory Concentration (MIC) testing, broth microdilution, other bacterial species; assay type: cell-based
Description: (§1) Compounds of this invention were tested for antimicrobial activity by susceptibility testing in liquid media. MICs for compounds against each strain were determined by a broth microdilution method according to the National Committee for Clinical Laboratory Standards (NCCLS) guidelines. (NCCLS. 2000. Methods for dilution antimicrobial susceptibility tests for bacteria that grow aerobically—fifth edition. Approved standard M7-A5. NCCLS, Wayne, Pa.)
(§2) Briefly, test compounds are prepared in 100 μl of 1.6% DMSO solution in multiwell plates. Several bacterial colonies from a freshly streaked plate are transferred to an appropriate rich broth, such as Mueller Hinton. The cell suspension is adjusted to an optical density of 0.09 and further diluted 1:100 with warm 2× broth. This cell suspension is dispensed into the wells containing compound solution so that the final volume is 200 μl. The plates are incubated overnight (16-20 hours) at 37° C. and turbidity is scored by eye and quantified spectrophotometrically. The MIC is defined as the lowest concentration inhibiting visible growth.
Some of the Examples were also tested for activity against other bacterial species. […] Activities were again scored as ‘A’ if the MIC was ≦8 micrograms/ml, ‘B’ if the MIC was 16 to 64 micrograms/ml and ‘C’ if the MIC was greater than 64 micrograms/ml.

[4] = tested on: staphylococcal clinical isolates; assay: Minimum Inhibitory Concentration (MIC) testing, broth microdilution, staphylococcal clinical isolates; assay type: cell-based; settings: for MIC: read-out: MIC Activity against clinical isolate
Description: as §1, §2
Some of the Examples were also tested for activity against staphylococcal clinical isolates. […] Activities were again scored as ‘A’ if the MIC was ≦8 micrograms/ml, ‘B’ if the MIC was 16 to 64 micrograms/ml and ‘C’ if the MIC was greater than 64 micrograms/ml.

[5] = Bacillus cereus, ATCC14579, read-out: MIC Activity Bacillus cereus ATCC 14579
[6] = Staphylococcus saprophyticus, ATCC15305, read-out: MIC Activity Staphylococcus saprophyticus ATCC 15305
[7] = S. aureus No. 753, Oxacillin S, Hospital
[8] = S. aureus No. 757, Oxacillin R, Tet-R, MI-R, Hospital (tetM)
[9] = S. aureus No. 1134, Oxacillin S, Hospital
[10] = S. aureus No. 1135, Oxacillin R, Van-S, LZD-S, Hospital
[11] = S. aureus No. 1651, Oxacillin R, Van-S, LZD-R, Hospital (G2576T, G)
[12] = S. aureus No. 1652, Oxacillin R, Van-S, LZD-R, Hospital (T2500T, A)
[13] = S. aureus No. 1662, Oxacillin S, Hospital
[14] = S. aureus No. 1725, Oxacillin R, Van-S, LZD-R, Hospital (G2576T)
[15] = S. aureus No. 1729, Oxacillin R, Tet-R, MI-R, Hospital
[16] = S. aureus No. 2011, Oxacillin R, Tet-R, MI-S, Hospital (tetK)
[17] = S. aureus No. 2012, Oxacillin R, Van-I, LZD-S, Hospital
[18] = S. aureus No. 2018, Oxacillin R, Van-I, LZD-S, Hospital
[19] = S. aureus No. 2142, Oxacillin R, CC-S, SXT-S, Community
[20] = S. aureus No. 2143, Oxacillin R, Rif-R, Community
[21] = S. aureus No. 2147, Oxacillin R, CC-S, SXT-S, Community
[22] = S. aureus No. 2149, Oxacillin R, CC-R (iMLS), SXT-S, Community
[23] = S. aureus No. 2150, Oxacillin R, CC-R, SXT-S, Community
[24] = S. aureus No. 2158, Oxacillin R, CC-R, Doxy-I, Community
[25] = S. aureus No. 2175, Oxacillin R, TMP-R, Community
[26] = S. epidermidis No. 831, Oxacillin R
[27] = S. epidermidis No. 1139, Oxacillin S
[28] = S. epidermidis No. 1142, Oxacillin R
[29] = S. epidermidis No. 1144, Oxacillin R
[30] = Staphylococcus aureus, ATCC29213, S. aureus No. 0100, Oxacillin S, ATCC 29213
[31] = Staphylococcus aureus, S. aureus No. 1015, Oxacillin R, Van-S, LZD-S, Hospital
[32] = Staphylococcus epidermidis, S. epidermidis No. 835, Oxacillin S

SMILES: CCCC/C=C\CCCCOc1cccc(C(N)=O)c1 [Example 45, 3-[(Z)-5-Decenyloxy]benzenecarboxamide]
- MIC [1]: < 8 µg/mL
- MIC [2]: < 8 µg/mL
- melting point: 98 to 100 °C

SMILES: NC(=O)c1cccc(OCCCCC/C=C\c2ccsc2)c1 [Example 62, 3-{[(Z)-7-(3-Thienyl)-6-heptenyl]oxy}benzenecarboxamide]
- MIC [1]: < 8 µg/mL
- MIC [2]: < 8 µg/mL
- melting point: 71 to 73 °C

SMILES: NC(=O)c1cccc(OCCCCCCCc2ccsc2)c1 [Example 63, 3-{[7-(3-Thienyl)heptyl]oxy}benzenecarboxamide]
- MIC [1]: < 8 µg/mL
- melting point: 97 to 100 °C

SMILES: NC(=O)c1cccc(OCCCCC/C=C\c2ccc(Cl)o2)c1 [Example 64, 3-{[(Z)-7-(5-Chloro-2-furyl)-6-heptenyl]oxy}benzenecarboxamide]
- MIC [1]: < 8 µg/mL
- MIC [2]: < 8 µg/mL
- melting point: 53 to 56 °C

SMILES: C#CCCCCCCCOc1cccc(C(N)=O)c1 [Example 65, 3-(8-Nonynyloxy)benzenecarboxamide]
- MIC [1]: < 8 µg/mL
- MIC [2]: < 8 µg/mL
- melting point: 82 to 83 °C

SMILES: C#CCCCCCCCCCCOc1cccc(C(N)=O)c1 [Example 66, 3-(11-Dodecynyloxy)benzenecarboxamide]
- MIC [1]: < 8 µg/mL
- MIC [2]: < 8 µg/mL
- melting point: 106 to 108 °C

SMILES: C#CCCCCCCCCOc1cccc(C(N)=O)c1 [Example 67, 3-(9-Decynyloxy)benzenecarboxamide]
- MIC [1]: < 8 µg/mL
- MIC [2]: < 8 µg/mL
- melting point: 111 to 112 °C

SMILES: NC(=O)c1c(F)ccc(OCc2nc3cc(C(F)(F)F)ccc3s2)c1F [Example 217, 2,6-Difluoro-3-[5-(trifluoromethyl)-1,3-benzothiazol-2-yl]methoxybenzenecarboxamide]
- MIC [1]: < 8 µg/mL
- MIC [2]: < 8 µg/mL
- MIC [3, 5]: < 8 µg/mL
- MIC ([3]; Staphylococcus epidermidis, ATCC12228, read-out: MIC Activity Staphylococcus epidermidis ATCC 12228): < 8 µg/mL
- MIC [3, 6]: < 8 µg/mL
- MIC Activity against clinical isolate [4, 7]: A (‘A’ if the MIC was ≦8 micrograms/ml)
- MIC Activity against clinical isolate [4, 8]: A (‘A’ if the MIC was ≦8 micrograms/ml)
- MIC Activity against clinical isolate [4, 9]: A (‘A’ if the MIC was ≦8 micrograms/ml)
- MIC Activity against clinical isolate [4, 10]: A (‘A’ if the MIC was ≦8 micrograms/ml)
- MIC Activity against clinical isolate [4, 11]: A (‘A’ if the MIC was ≦8 micrograms/ml)
- MIC Activity against clinical isolate [4, 12]: A (‘A’ if the MIC was ≦8 micrograms/ml)
- MIC Activity against clinical isolate [4, 13]: A (‘A’ if the MIC was ≦8 micrograms/ml)
- MIC Activity against clinical isolate [4, 14]: A (‘A’ if the MIC was ≦8 micrograms/ml)
- MIC Activity against clinical isolate [4, 15]: A (‘A’ if the MIC was ≦8 micrograms/ml)
- MIC Activity against clinical isolate [4, 16]: A (‘A’ if the MIC was ≦8 micrograms/ml)
- MIC Activity against clinical isolate [4, 17]: A (‘A’ if the MIC was ≦8 micrograms/ml)
- MIC Activity against clinical isolate [4, 18]: A (‘A’ if the MIC was ≦8 micrograms/ml)
- MIC Activity against clinical isolate [4, 19]: A (‘A’ if the MIC was ≦8 micrograms/ml)
- MIC Activity against clinical isolate [4, 20]: A (‘A’ if the MIC was ≦8 micrograms/ml)
- MIC Activity against clinical isolate [4, 21]: A (‘A’ if the MIC was ≦8 micrograms/ml)
- MIC Activity against clinical isolate [4, 22]: A (‘A’ if the MIC was ≦8 micrograms/ml)
- MIC Activity against clinical isolate [4, 23]: A (‘A’ if the MIC was ≦8 micrograms/ml)
- MIC Activity against clinical isolate [4, 24]: A (‘A’ if the MIC was ≦8 micrograms/ml)
- MIC Activity against clinical isolate [4, 25]: A (‘A’ if the MIC was ≦8 micrograms/ml)
- MIC Activity against clinical isolate [4, 26]: A (‘A’ if the MIC was ≦8 micrograms/ml)
- MIC Activity against clinical isolate [4, 27]: A (‘A’ if the MIC was ≦8 micrograms/ml)
- MIC Activity against clinical isolate [4, 28]: A (‘A’ if the MIC was ≦8 micrograms/ml)
- MIC Activity against clinical isolate [4, 29]: A (‘A’ if the MIC was ≦8 micrograms/ml)
- MIC [4, 30]: < 8 µg/mL
- MIC [4, 31]: < 8 µg/mL
- MIC [4, 32]: < 8 µg/mL

SMILES: Cc1ccc(-c2nc(COc3ccc(F)c(C(N)=O)c3F)cs2)cc1 [Example 236, 2,6-Difluoro-3-[2-(4-methylphenyl)-1,3-thiazol-4-yl]methoxybenzenecarboxamide]
- MIC [1]: < 8 µg/mL
- MIC [2]: < 8 µg/mL
- MIC [3, 5]: < 8 µg/mL
- MIC [3, 6]: < 8 µg/mL
- MIC Activity against clinical isolate [4, 7]: A (‘A’ if the MIC was ≦8 micrograms/ml)
- MIC Activity against clinical isolate [4, 8]: A (‘A’ if the MIC was ≦8 micrograms/ml)
- MIC Activity against clinical isolate [4, 9]: A (‘A’ if the MIC was ≦8 micrograms/ml)
- MIC Activity against clinical isolate [4, 10]: A (‘A’ if the MIC was ≦8 micrograms/ml)
- MIC Activity against clinical isolate [4, 11]: A (‘A’ if the MIC was ≦8 micrograms/ml)
- MIC Activity against clinical isolate [4, 12]: A (‘A’ if the MIC was ≦8 micrograms/ml)
- MIC Activity against clinical isolate [4, 13]: A (‘A’ if the MIC was ≦8 micrograms/ml)
- MIC Activity against clinical isolate [4, 14]: A (‘A’ if the MIC was ≦8 micrograms/ml)
- MIC Activity against clinical isolate [4, 15]: A (‘A’ if the MIC was ≦8 micrograms/ml)
- MIC Activity against clinical isolate [4, 16]: A (‘A’ if the MIC was ≦8 micrograms/ml)
- MIC Activity against clinical isolate [4, 17]: A (‘A’ if the MIC was ≦8 micrograms/ml)
- MIC Activity against clinical isolate [4, 18]: A (‘A’ if the MIC was ≦8 micrograms/ml)
- MIC Activity against clinical isolate [4, 19]: A (‘A’ if the MIC was ≦8 micrograms/ml)
- MIC Activity against clinical isolate [4, 20]: A (‘A’ if the MIC was ≦8 micrograms/ml)
- MIC Activity against clinical isolate [4, 21]: A (‘A’ if the MIC was ≦8 micrograms/ml)
- MIC Activity against clinical isolate [4, 22]: A (‘A’ if the MIC was ≦8 micrograms/ml)
- MIC Activity against clinical isolate [4, 23]: A (‘A’ if the MIC was ≦8 micrograms/ml)
- MIC Activity against clinical isolate [4, 24]: A (‘A’ if the MIC was ≦8 micrograms/ml)
- MIC Activity against clinical isolate [4, 25]: A (‘A’ if the MIC was ≦8 micrograms/ml)
- MIC Activity against clinical isolate [4, 26]: A (‘A’ if the MIC was ≦8 micrograms/ml)
- MIC Activity against clinical isolate [4, 27]: A (‘A’ if the MIC was ≦8 micrograms/ml)
- MIC Activity against clinical isolate [4, 28]: A (‘A’ if the MIC was ≦8 micrograms/ml)
- MIC Activity against clinical isolate [4, 29]: A (‘A’ if the MIC was ≦8 micrograms/ml)
- MIC [4, 30]: < 8 µg/mL
- MIC [4, 31]: < 8 µg/mL
- MIC [4, 32]: < 8 µg/mL

Other lines, results leading:

- MIC [1]: < 8 µg/mL
- MIC [2]: < 8 µg/mL
- melting point: 75 to 77 °C
SMILES: CCCCCCCCCOc1ccc(Cl)c(C(N)=O)c1F [Example 76, 6-Chloro-2-fluoro-3-(nonyloxy)benzenecarboxamide]

- MIC [1]: 16 to 64 µg/mL (≈ 58.5 to 234 µM)
- MIC [2]: 16 to 64 µg/mL (≈ 58.5 to 234 µM)
- melting point: 66 to 68 °C
SMILES: CCCCCCOc1ccc(F)c(C(N)=O)c1Cl [Example 77, 2-Chloro-6-fluoro-3-(hexyloxy)benzenecarboxamide]

- MIC [1]: < 8 µg/mL
- MIC [2]: < 8 µg/mL
- melting point: 64 to 66 °C
SMILES: CCCCCCCCCOc1ccc(F)c(C(N)=O)c1Cl [Example 78, 2-Chloro-6-fluoro-3-(nonyloxy)benzenecarboxamide]

- MIC [1]: < 8 µg/mL
- melting point: 78 to 80 °C
SMILES: Cc1ccc(S(=O)(=O)OCCCCCCCCCOc2cccc(C(N)=O)c2)cc1 [Example 92, 9-[3-(Aminocarbonyl)phenoxy]nonyl 4-methylbenzenesulfonate]

- MIC [1]: 16 to 64 µg/mL (≈ 57.5 to 230 µM)
- melting point: 185 to 186 °C
SMILES: Cc1cc(COc2ccc(F)c(C(N)=O)c2F)ccn1 [Example 198, 2,6-Difluoro-3-[(2-methyl-4-pyridinyl)methoxy]benzenecarboxamide]
